# Test results from patent EP1176134A1, “LIGANDS OF NUCLEAR RECEPTORS PPAR'S” (Nuclear Receptor Research Limited, priority 1999, dated 2000).
# Experiments:
# [1] = tested on: PPARγ; assay: transfer (reporter) gene activity assay in transfected COS-1 cells, PPARγ; assay type: cell-based; settings: luciferase reporter, 20 hours
# Experimental: Transfection was performed by a standard procedure using a LipofectAMINE reagent from Life Technologies. A 35 mm Petri dish containing 1 x 10^5 cells dispersed in 2 ml of Dulbecco's minimum medium (DMEM) containing 10% fetal bovine serum was incubated in a CO2 incubator for 17 hours. Then, the medium was removed and cells adhered to the Petri dish were washed with phosphate buffered physiological saline (PBS), after which transfection was performed using a LipofectAMINE reagent. That is, […] of a minimum serum medium OptiMEM (Life Technologies) containing […] of a plasmid bearing the luciferase gene whose expression is controlled by PPAR-responsive elements, […] of a PPAR expression plasmid and 2 mg of a plasmid bearing the β-galactosidase gene for monitoring transfection efficiency was preliminarily mixed with […] of OptiMEM containing 50 ml of LipofectAMINE dissolved therein, and the mixed solution was maintained at room temperature for 15 minutes. A Petri dish containing a mixture of 100 ml of this mixed solution and 400 ml of OptiMEM was incubated in a CO2 incubator at 37°C for 3 hours. The transfection medium was aspirated off from the Petri dish, which was supplied with DMEM containing 10% serum treated with activated carbon and a test compound and incubated at 37°C for 20 hours. […] The medium also contains a solvent for test compounds dimethyl sulfoxide (final concentration 0.1%).
# (§1) After the medium in the Petri dish was aspirated off, […] of a lysing solution for cultured cells (25 mM Tris phosphate buffer (pH 7.8), 2 mM 1,2-diaminocyclo-hexane-N, N,N',N'-tetraacetate, 10% glycerol, 1% Triton X-100) was added and cells were scraped with rubber policeman. Cells were completely disrupted by freezing and thawing and then centrifuged at 4°C (15,000 rpm, 2 min), and the supernatants were used as test samples. […] The β-galactosidase for monitoring transfection efficiency was measured for fluorescence in a luminometer using Luminescent β-galactosidase detection kit II (Clontech). […]
# [2] = tested on: rat hypertension model; assay: prevention of aneurysms in DOCA/saline one-kidney rat hypertension model; assay type: in vivo, male Wistar rats
# Experimental: Compounds of the present invention show the effect of preventing periarteritis nodosa and aneurysms. In order to evaluate the effect of preventing aneurysms, a quantitatively assayable rat hypertension model was used so that aneurysms formed in mesenteric arteries were measured and statistically processed to determine the effect. The membrane was removed with forceps from isolated mesenterium and the remaining arterioles were fixed with formalin and then fat-stained. The number of arterioles and the number of aneurysms were counted in triplicate to calculate the average number of aneurysms per arteriole. As a hypertension model, rats with one kidney extracted to decrease renal function were given 0.9% saline as drinking water having a slightly higher osmosis than plasma and subcutaneously received 10 mg/kg of a mineral corticoid deoxycorticosteron acetate (DOCA) weekly. The left kidney was extracted from male Wistar rats (12 animals) under anesthetization. The rats deprived of kidney were randomly divided into two groups (n = 6) after a period of recovery for a week. One of the two groups was a control group and the other received compound 1. […] The experimental period was 7 weeks, during which feed intake, drinking water intake, urine volume, body weight and blood pressure were measured every 3 days from the start of experiments. […]
# [3] = tested on: streptozotocin-induced diabetes; assay: streptozotocin-induced diabetes in rats; assay type: in vivo, male Wistar rats; settings: 100 mg/kg orally once daily; for Body weight / Drinking water intake / Feed intake / Urinary sugar excretion / Urine volume: n=8
# Experimental: Streptozotocin (50 mg/kg) was injected into the tail vein of male Wistar rats weighing about 250 g to prepare an insulin deficiency diabetes model. Compound 1 suspended in a gum arabic solution was orally administered at 100 mg/kg once daily, starting immediately after administration of streptozotocin. The animals were housed in a urine-collecting cage for 24 hours on days 7 and 14 to collect urine for 24 hours. […] However, weight gain was 80 g/week in the healthy group in contrast with only 18 g/week in the diabetes control group. […] This means that administration of compound 1 improved metabolism to greatly reduce urinary sugar excretion.
# [4] = tested on: NOD mice; assay: prevention of onset of type I diabetes in NOD mice; assay type: in vivo, female NOD mice; settings: 10 animals
# Experimental: (§2) Each group consists of 10 animals.
# The mice were bred for 24 weeks, during which they were tested for urinary sugar excretion using an urinary sugar detection tape on Monday and Friday (Fig. 3).
# [5] = tested on: Ehrlich ascites tumor cells; assay: hyperlipidemia (cachexia marker) in Ehrlich ascites tumor bearing mice; assay type: in vivo, male ddY-strain mice; settings: for Body weight / Serum neutral Serum neutral fat: day 8, mean±SD, n=8
# Description: In these experiments, serum neutral fat was selected as an indication of cachexia to serve as an auxiliary marker for knowing dynamics of TNFα that is difficult to quantitize, because it is difficult to exactly measure blood TNFα and it is easier to measure serum neutral fat than blood TNFα. Forty male ddY-strain mice at 5 weeks of age were randomly divided into 5 groups (n = 8), among which 4 groups were intraperitoneally implanted with 2 x 10^6 Ehrlich ascites tumor cells. The group implanted with no tumor cells was a healthy control group. From 24 hours after implantation of tumor cells, 3 groups intraperitoneally received 100-400 mg/kg of compound 1, while the other group received a solvent 0.1% Tween 80 (0.2 ml) alone free from compound 1. On day 8 after implantation of tumor cells, blood was collected from the heart of tumor bearing mice to assay neutral fat in separated serum and detect blood TNFα by immunoelectrophoresis.
# [6] = tested on: serum lipid; settings: cited from earlier work
# [7] = tested on: DOCA hypertension rats; settings: orally administered to DOCA hypertension rats; cited from earlier work
# [8] = tested on: hereditary obese and diabetic mice C57BL/ksj db/db; assay: polydipsia/polyuria and urinary sugar excretion in db/db mice fed compound in diet; assay type: in vivo
# Experimental: Ten male db/db mice at 30-32 weeks of age were randomly divided into two groups (n = 5), ie, a control group and compound 17 group. The animals were allowed free access to diet and drinking water. The diet was mouse II rat standard food CE-2 powder from Clea Japan, which was pelletized after a solution of compound 17 in acetone was applied and acetone was evaporated by air-drying. Compound 17 was added in an amount of 0.1% of the diet. A control diet was also pelletized after the same amount of acetone was applied.
# Both groups received the control diet for first 7 days to test feed intake, urine volume, urinary sugar level and urinary sugar excretion level. During the following 5 days, the treatment group received the diet containing 0.1% compound 17. The treatment group was bred with the control diet again for further 4 days and then bred with the diet containing 0.1% compound 17 again for 5 days on […]. As db/db mice individually bred in metabolic cages show wide variation in feed and drinking water intakes, 5 animals were housed in a rat metabolic cage and the values obtained in each cage were divided by 5 and shown in Fig. 1. […] Urinary sugar excretion level is 50% or less as compared with the control period even 24 hours after administration is stopped, showing that compound 17 has a carry-over effect.
# [9] = tested on: db/db mice; assay: blood glucose and urinary sugar excretion in db/db mice; assay type: in vivo; settings: 60 mg/kg orally once daily, Fig. 2
# Experimental: Blood was collected from the tail vein of ten db/db mice at 12 weeks of age 2 days before the start of experiments, and the animals were divided into two groups each having an average blood glucose level of 720-740 mg/dl. One group was a control group, while the other group orally received compound 25 at 60 mg/kg once daily. […] SA solid diamond denotes the control group, solid triangle denotes the: group treated with compound 1 at 25 mg/kg, open square denotes the: group treated with compound 1 at 50 mg/kg, and cross denotes the: group treated with compound 25 at 50 mg mg/kg. Each group consists of 10 animals.
# Blood was collected from the tail vein of ten db/db mice at 12 weeks of age, and the animals were divided into two groups, ie, a control group and a compound 25 group, each having an average blood glucose level of about 700 mg/dl and housed in urine-collecting cages. A small amount of blood was collected from the tail vein on days 1, 2, 3, 5, 7 and 10 from the start of experiments to determine blood glucose. Urine was collected for 24 hours at the same intervals to determine urinary sugar excretion level by the oxygen method.
# [10] = tested on: immobilized PPARγ receptor; assay: Surface Plasmon Resonance sensor (BIAcore) binding test; settings: BIAcore sensorgram, Fig. 4
# Description: as §2
# A Surface Plasmon Resonance sensor (BIAcore column) was used to examine whether or not compounds of the present invention bind immobilized PPARγ receptor.
# [11] = tested on: PPARα; assay: transfer (reporter) gene activity assay in transfected COS-1 cells, PPARα; assay type: cell-based; settings: luciferase reporter, 20 hours
# Experimental: Transfection was performed by a standard procedure using a LipofectAMINE reagent from Life Technologies. A 35 mm Petri dish containing 1 x 10^5 cells dispersed in 2 ml of Dulbecco's minimum medium (DMEM) containing 10% fetal bovine serum was incubated in a CO2 incubator for 17 hours. Then, the medium was removed and cells adhered to the Petri dish were washed with phosphate buffered physiological saline (PBS), after which transfection was performed using a LipofectAMINE reagent. […]
# as §1, with “policeman.” for “policeman. Cells were completely disrupted by freezing and thawing and then centrifuged at 4°C (15,000 rpm, 2 min), and the supernatants were used as test samples.”
# [12] = 50 mg/kg intraperitoneally twice weekly
# [13] = Dose 100 mg/kg intraperitoneally
# [14] = Dose 200 mg/kg intraperitoneally
# [15] = Dose 400 mg/kg intraperitoneally
# [16] = groups treated with 100-400 mg/kg
# [17] = diet containing 0.1% compound, Fig. 1
smiles,measurement,setting,value
"C/C(=C\Cc1c(O)c(Cl)c(C)c(C=O)c1O)CC/C=C(\C)C1CC(=O)C(C)(C)O1 (centres unmarked) [Compound 1, Ascofuranone]",Activation of receptors PPARγ,[1],+++ (Activation peak appears at 10^-6-10^-5M.)
same,effect of suppressing pressure rise (blood pressure),"[2]; orally 100 mg/kg from week 3, compared with control group",any significant effect of suppressing pressure rise was not observed
same,aneurysms (mean ± SE) per mesenteric artery,"[2]; orally 100 mg/kg from week 3, dissected at week 7, n = 6",0.51 ± 0.37 aneurysms per mesenteric arter
same,weight gain,[3],30 g/week
same,Body weight,[3]; Day 7,307.7±4.8 g/rat
same,Drinking water intake,[3]; Day 7,99.9±13.0 ml/rat/day
same,Feed intake,[3]; Day 7,32.9±1.9 g/rat
same,Urinary sugar excretion,[3]; Day 7,5.39±0.55 g/rat/day
same,Urine volume,[3]; Day 7,74.6±6.4 ml/rat/day
same,Body weight,[3]; Day 14,318.3±6.8 g/rat
same,Drinking water intake,[3]; Day 14,106.9±18.0 ml/rat/day
same,Feed intake,[3]; Day 14,32.6±2.9 g/rat
same,Urinary sugar excretion,[3]; Day 14,5.78±1.09 g/rat/day
same,Urine volume,[3]; Day 14,79.7±12.5 ml/rat/day
same,drinking water intake as compared with the diabetes control group,[3]; day 7,41.4%
same,feed intake decrease as compared with the diabetes control group,[3]; day 7,14.3%
same,drinking water intake as compared with the diabetes control group,[3]; day 14,43.6%
same,feed intake decrease as compared with the diabetes control group,[3]; day 14,23.3%
same,incidence of type I diabetes at week 24,[4]; 25 mg/kg intraperitoneally twice weekly,30%
same,incidence of type I diabetes at week 24,[4]; [12],10%
same,Body weight,[5]; [13],38.0±1.0 g/mouse
same,Serum neutral Serum neutral fat,[5]; [13],258.2 ± 53.2 mg/dL
same,Body weight,[5]; [14],36.7±0.7 g/mouse
same,Serum neutral Serum neutral fat,[5]; [14],185.1 ± 26.2 mg/dL
same,Body weight,[5]; [15],31.3±1.1 g/mouse
same,Serum neutral Serum neutral fat,[5]; [15],99.1 ± 18.3 mg/dL
same,blood TNFα,[5]; [16],downward tendency
same,blood glucose level,[5]; [16],significant increase
same,increase of serum neutral fat,[5]; [16],dose-dependently suppressed
same,toxicity,[6]; orally administered to rodents,very low toxicity
same,effect on serum lipid,"[6]; orally administered, rats bred with a standard diet or a high-fat diet",lowering serum lipid
same,indications of cardiovascular diseases,[7],improves indications of cardiovascular diseases
same,pressure rise,[7],does not suppress pressure rise
"COc1c(C=O)c(C)c(Cl)c(O)c1C/C=C(\C)CC/C=C(\C)C1CC(=O)C(C)(C)O1 (centres unmarked) [Compound 7, 2-O-methyl AF]",Activation of receptors PPARγ,[1],+++ (Activation peak appears at 10^-6-10^-5M.)
"COc1c(Cl)c(C)c(C=O)c(O)c1C/C=C(C)/C=C/[C@@]1(C)[C@H](C)CCC(=O)[C@@H]1C [Compound 17, 4-O-MeAS]",Urinary sugar excretion level as compared with the control period,"[8]; 24 hours after administration is stopped, 0.1% in diet",≤ 50%
same,Urine volume,[8]; [17],sharply decrease
same,urinary sugar excretion level,[8]; [17],sharply decrease
same,urinary sugar level,[8]; [17],sharply decrease
"COc1c(C=O)c(C)c(Cl)c(O)c1C/C=C(C)/C=C/C1(C)C(C)CCC(=O)C1C (centres unmarked) [Compound 21, 2-O-methylascochlorin]",Activation of receptors PPARγ,[1],++ (Activation peak appears at 10^-5-10^-4M.)
CC(/C=C/C1(C)C(C)CCC(=O)C1C)=C\Cc1c(O)c(C=O)c(C)c(Cl)c1OCC(=O)O (centres unmarked) [Compound 25],Activation of receptors PPARγ,[1],+++ (Activation peak appears at 10^-6-10^-5M.)
same,blood glucose loss,[9]; day 7,over 30%
same,urinary sugar,[9]; day following the start of administration,decreased to a half
same,blood glucose,[9]; from day 3 of administration,significantly decreased
same,urinary sugar excretion level loss,[9]; on and after day 3,over 90%
same,incidence of type I diabetes at week 24,[4]; [12],10%
CC(/C=C/C1(C)C(C)CCC(=O)C1C)=C\Cc1c(O)c(C=O)c(C)c(Cl)c1OC(=O)c1cccnc1 (centres unmarked) [Compound 26],Activation of receptors PPARγ,[1],++ (Activation peak appears at 10^-5-10^-4M.)
"COc1c(C=O)c(C)c(Cl)c(OCC(=O)O)c1C/C=C(C)/C=C/C1(C)C(C)CCC(=O)C1C (centres unmarked) [Compound 27, 4-O-Carboxymethyl-2-O-methylascochlorin]",Activation of receptors PPARγ,[1],++ (Activation peak appears at 10^-5-10^-4M.)
same,binding to immobilized PPARγ receptor (SPR signal),[10],clearly generates a signal
"CC(/C=C/C1(C)C(C)CCC(=O)C1C)=C\Cc1c(O)c(C=O)c(C)c(Cl)c1OC(=O)CCCC(=O)O (centres unmarked) [Compound 29, 4-O-(4-Carboxybutanoyl)ascochlorin]",Activation of receptors PPARγ,[1],+++ (Activation peak appears at 10^-6-10^-5M.)
C/C(=C\Cc1c(O)c(Cl)c(C)c(C=O)c1O)CC/C=C(\C)C1=CC(=O)C(C)(C)O1 [Dehydroascofuranone],Activation of receptors PPARα,[11],++ (Activation peak appears at 10^-5-10^-4M.)
